One data set deals with HIV. To be noted: read-out: Anti-HIV IC50 (literature); ref Olivon, et al., 2017; cited from earlier work.
Another data set relates to HL4–3 virus. Description: Anti-HIV-1 activity against HL4–3 virus in MT4 cells. Format: cell-based.
A short description of data set [1]: Cytotoxicity toward MT4 cells. Format: cell-based. To be noted: human.
Another data set has as its system MT4 cells. Briefly: Cytotoxicity toward MT4 cells. Type of data set: cell-based. To be noted: read-out: Cytotoxicity CC50, means, n = 3.
[2] abbreviates: read-out: Anti-HIV-1 IC50, HL4–3 virus in MT4 cells, means, n = 3.

Where two headings read alike, the source gives them in different places.

The IC50 is the point on the concentration scale where inhibition reaches its midpoint. The CC50 is the concentration giving 50% cytotoxicity.

Take `CCCCCCCCCCCCCCCC(=O)O[C@@]12C[C@@H](C)[C@@]3(O)[C@H]([C@@H]1C2(C)C)[C@H](O)[C@](O)(CO)[C@@H](O)[C@]1(O)C(=O)C(C)=C[C@H]13` [12-deoxy-5β-6β-7α-trihydroxy-phorbol-13-hexadecanoate]: in the data set on HIV, the half-inhibitory concentration (IC50) was 0.257 µM.
On to `CCCCCCCCCCCCCCCC(=O)O[C@@]12C[C@@H](C)[C@]3(O)[C@@H]4C=C(C)C(=O)[C@@]4(O)[C@H](O)C(CO)=C[C@H]3[C@@H]1C2(C)C` [12-deoxy-5β-hydroxy-phorbol-13-hexadecanoate], for which, in the data set with HIV, the IC50 was 0.002 µM.
For `Cc1cn([C@H]2C[C@H](N=[N+]=[N-])[C@@H](CO)O2)c(=O)[nH]c1=O` [AZT, zidovudine, reference compound], the IC50 with HL4–3 virus (Human immunodeficiency virus 1, MT4, read-out: Anti-HIV-1 IC50) stood at 0.0187 µM. The “Selectivity index SI” value in the data set on HL4–3 virus (ratio of CC50 and anti-HIV IC50) is reported as over 20. The molecule also returned a CC50 in data set [1] of over 0.37 µM.
As for `CCCCCCCCCCCCCCCC(=O)O[C@@]12C[C@@H](C)[C@@]3(O)[C@@H](C=C(CO)C[C@]4(O)C(=O)C(C)=C[C@@H]34)[C@@H]1C2(C)C` [Compound 7, 12-deoxyphorbol-13-hexadecanoate], the IC50 in the data set on HL4–3 virus (setting [2]) was found to be 0.0023 µM. Moreover, the CC50 in the data set on MT4 cells is over 1.7 µM.
On the same counts, the results for `CCCCCCCCCCCCCC(=O)O[C@@]12C[C@@H](C)[C@@]3(O)[C@@H](C=C(CO)C[C@]4(O)C(=O)C(C)=C[C@@H]34)[C@@H]1C2(C)C` [Compound 8, 12-deoxyphorbol-13-myristate] are 0.022 µM and over 1.8 µM.
Consider Crotignoid L [Compound 1], for which, in the data set with HL4–3 virus (setting [2]), the IC50 came out at 0.22 µM. Also, in the data set with MT4 cells, the CC50 was over 1.8 µM.
For Crotignoid M [Compound 2], the IC50 with HL4–3 virus (setting [2]) is 0.038 µM. Also, the CC50 with MT4 cells was over 1.7 µM.
Regarding Crotignoid N [Compound 3], the concentration for half-maximal inhibition (IC50) in the data set on HL4–3 virus (setting [2]) stood at 0.31 µM. Moreover, the CC50 in the data set on MT4 cells was over 1.6 µM.
Consider Crotignoid O [Compound 4], for which, in the data set with HL4–3 virus (setting [2]), the 50% inhibitory concentration (IC50) turned out to be 4.03 µM. Also, the CC50 with MT4 cells is over 1.8 µM.
For the molecule Crotignoid P [Compound 5], in the data set on HL4–3 virus (setting [2]), the IC50 turned out to be 0.1 µM. For the same molecule, the CC50 in the data set with MT4 cells was over 1.6 µM.
On to Crotignoid Q [Compound 6], for which the “Anti-HIV activity (in words)” value with HL4–3 virus (HL4–3 virus in MT4 cells) is “did not show anti-HIV activity”. In addition, the IC50 in the data set with HL4–3 virus (setting [2]) is over 1.9 µM. The CC50 with MT4 cells is over 1.9 µM.

These data come from publication PMC7238976 (Phytochemistry, 2020).
